According to patent publication US11859169B2, “Nano-ligand for promoting cell adhesion and regeneration of macrophages and method of promoting cell adhesion and regeneration of macrophages by using the same” (Korea University Research and Business Foundation, priority 2020, dated 2024):

Test system: Macrophages (RAW 264.7)
Assay: adhesion structure assembly-mediated M2 phenotype under ROCK, myosin II or actin polymerization inhibition
Format: cell-based
Conditions: M2-polarizing medium; for reduction of Arg-1 immunofluorescence on the magnet side / reduction of adherent macrophage area on the magnet side / reduction of adherent macrophage aspect ratio on the magnet side: 36 hours, 50 μM Y27632, 10 μM blebbistatin

Cc1ccc2c(c1)C(=O)C1(O)CCN(c3ccccc3)C1=N2 (stereo not shown) [blebbistatin]
reduction of Arg-1 immunofluorescence on the magnet side: 29%
reduction of adherent macrophage area on the magnet side: 33%
reduction of adherent macrophage aspect ratio on the magnet side: 31%

C=C1[C@@H](C)[C@H]2[C@H](Cc3ccccc3)NC(=O)[C@]23[C@H](OC(C)=O)/C=C/[C@@](C)(O)C(=O)[C@@H](C)C/C=C/[C@H]3[C@@H]1O [cytochalasin D]
decreases in the area, aspect ratio, and Arg-1 fluorescence of the adherent macrophages (2 μg/mL cytochalasin D): clearly observed

C[C@@H](N)[C@H]1CC[C@H](C(=O)Nc2ccncc2)CC1 [Y27632]
reduction of Arg-1 immunofluorescence on the magnet side: 29%
reduction of adherent macrophage area on the magnet side: 32%
reduction of adherent macrophage aspect ratio on the magnet side: 33%
